The values that follow come from publication PMC11513923, “Discovery of ZLC491 as a Potent, Selective, and Orally Bioavailable CDK12/13 PROTAC Degrader” (Journal of Medicinal Chemistry, 2024).

The subject of series [1] is MDA-MB-231 xenograft tumors. In words: Histology of tumors (H&E staining, TUNEL IHC) in MDA-MB-231 xenograft model. The following applies: 100 and 200 mg/kg orally, 5 days; particularly at 200 mg/kg. In kind it is in vivo, mouse. As for the experimental part: (§1) We further performed pharmacodynamic studies of ZLC491 in an MDA-MB-231 xenografted mouse model. ZLC491 was orally administrated at two doses of 100 and 200 mg/kg, respectively, for 5 consecutive days (Figure 7A). Tumor tissues were harvested on day 5 and subjected to Western blot analysis. […] Additionally, we conducted further histological analysis on the tumors following ZLC491 treatment.
(§2) Figure 7 ZLC491 depleted CDK12 and CDK13 proteins in vivo. (A) Study design of pharmacodynamics assessment on target engagement of ZLC491 in the MDA-MB-231 xenograft model; (B) immunoblotting of CDK12, CDK13, and α-tubulin in tissue lysate of MDA-MB-231 xenografts model after ZLC491 treatment; (C) protein levels were quantified using ImageJ and normalized to corresponding α-tubulin, then plotted using GraphPad Prism 8.0; (D) immunohistochemistry (IHC) analysis on the tumors by H&E staining and TUNEL assays; (E) TUNEL histology scores were analyzed and plotted by GraphPad Prism 8.0; (F) body weight change during the treatment.
H&E staining of formalin-fixed paraffin embedded (FFPE) tissue sections was performed using Leica Autostainer XL as per manufacturer’s protocol. […] Cells which were intensely stained for DAB pigment were considered to be apoptotic and they were quantified as numbers per 10 high power field (hpf, 400× magnification).

Series [2] concerns CDK12/13. In words: Immunoblotting of CDK12 and CDK13 in MDA-MB-436 cells. Type of series: cell-based, human. The following applies: increasing concentrations, 15 h. As for the experimental part: (§3) To further characterize the compound, we determined the half-degradation concentration (DC50) values of ZLC491 in MDA-MB-231 cells. […] We also treated MDA-MB-231 cells with 1 μM ZLC491 at various time points.
(§4) (A) Immunoblotting of CDK12 and CDK13 in MDA-MB-231 cells treated with increasing concentrations of ZLC491 for 15 h (left). Percent remaining CDK12 and CDK13 proteins were plotted for DC50 determination (right). Protein levels were quantified using ImageJ and normalized to corresponding α-tubulin, then plotted using Graphpad Prism 8.0. The data were representative of three independent experiments; (B) immunoblotting of CDK12 and CDK13 proteins in MDA-MB-231 cells treated with ZLC491 for various time points; immunoblotting of CDK12 and CDK13 in HCC38 (C) and MDA-MB-436 (D) cells treated with increasing concentrations of ZLC491 for 15 h. α-Tubulin was used as a loading control. TEXT PRINTED IN THE PICTURE: (A) ZLC491: MDA-MB-231: CDK12 DC50 = 0.032μM; MDA-MB-231: CDK13 DC50 = 0.028μM DOUBTS OF THE COPYIST ABOUT THIS PICTURE: ZLC491, CDK12 DC50: 0.032 read from small print, the digits 3 and 2 are uncertain / ZLC491, CDK13 DC50: 0.028 read from small print, the last digit may be 8, 6 or 3 […]
On the technique in general: In western blotting, separated proteins are transferred to a membrane and probed.

Series [3] concerns CDK12/13. In words: Immunoblotting of CDK12 and CDK13 in HCC38 cells. Type of series: cell-based, human. The following applies: increasing concentrations, 15 h. As for the experimental part:
as §3, §4

Series [4] in a line: Tolerability and body weight in MDA-MB-231 xenografted mice. In kind it is in vivo. The following applies: 100 and 200 mg/kg orally, 5 days. As for the experimental part:
as §1, §2
The pharmacodynamics experiments were performed under an approved animal protocol by the Institutional Animal Care & Use Committee of the University of Michigan. Six- to eight-week-old CB17SCID female (Charles River Laboratory) mice were in a regular SPF housing room prior to cell injection. […]

Turning to `N#Cc1ccc(N[C@H]2CC[C@H](N(C(=O)NCc3ccccc3)c3ccc(N4CCN(C5CCN(c6cc7c(cc6F)C(=O)N(C6CCC(=O)NC6=O)C7=O)CC5)CC4)cc3)CC2)nc1` (some centres unmarked) [ZLC491, 3-Benzyl-1-((1r,4r)-4-((5-cyanopyridin-2-yl)amino)cyclohexyl)-1-(4-(4-(1-(2-(2,6-dioxopiperidin-3-yl)-6-fluoro-1,3-dioxoisoindolin-5-yl)piperidin-4-yl)piperazin-1-yl)phenyl)urea], the “apoptosis in tumors (H&E staining, TUNEL IHC)” value in series [1] is “marked apoptosis and increased TUNEL signaling”. Moreover, the “depletion of CDK12/13” value in the series with CDK12/13 [2] is reported as “concentration-dependent manner”. Moreover, in the series on CDK12/13 [3], the “depletion of CDK12/13” value is reported as “concentration-dependent manner”. In addition, in series [4], the “body weight change during the treatment” value is listed as “absence of body weight loss” and the tolerability result was “well tolerated”.
